Measurements from PMC2649378 (European Journal of Pharmacology, 2008).
Positions count from the first letter of the chain named. “And” between values parts separate entries of the source, which are not always exact repeats. Identical values can stand only once. Like-named read-outs stand apart in the source and are kept apart here.

Legend:
5-HT3A receptors [1] = molecular target: T1, 5-HT3A receptors (Mus musculus, UniProt P23979); assay: Agonist-induced currents in Xenopus oocytes expressing 5-HT3A receptors (OpusXpress electrophysiology); type: cell-based; conditions: for agonist character: 5-HT3A receptors; for EC50: holding potential -60 mV; for Relative efficacy Rmax = Imax drug / Imax 5-HT: maximal concentration; for Rmax, approximate summary value: discussion, stated for 5-HT3 receptors (5-HT3A and 5-HT3AB) without distinction; for EC50 relative to Ki: EC50 fold higher than Ki
T1 construct: expressed in transfected cells; host or cells: Xenopus laevis oocytes injected with cRNA (pGEMHE)
T1 sequence (P23979 24-489): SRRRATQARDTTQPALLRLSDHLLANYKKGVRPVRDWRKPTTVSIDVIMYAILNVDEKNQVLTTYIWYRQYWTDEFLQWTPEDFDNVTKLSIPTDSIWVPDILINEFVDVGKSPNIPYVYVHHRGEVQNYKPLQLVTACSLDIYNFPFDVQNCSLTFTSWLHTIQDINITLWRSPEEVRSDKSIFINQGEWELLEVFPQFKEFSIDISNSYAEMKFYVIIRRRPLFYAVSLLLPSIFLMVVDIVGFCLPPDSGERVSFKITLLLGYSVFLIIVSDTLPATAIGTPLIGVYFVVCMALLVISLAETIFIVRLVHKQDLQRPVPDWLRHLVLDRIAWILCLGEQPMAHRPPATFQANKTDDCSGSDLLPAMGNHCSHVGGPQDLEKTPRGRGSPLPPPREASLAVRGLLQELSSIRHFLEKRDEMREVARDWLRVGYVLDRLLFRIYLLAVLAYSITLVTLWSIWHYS
Experimental: (§1) Harvested stage V–VI Xenopus oocytes were washed in six changes of ND96 (96 mM NaCl, 2 mM KCl, 1 mM MgCl2, 1.8 mM CaCl2, 5 mM HEPES, pH 7.5), de-folliculated in 1.5 mg ml^− 1 collagenase Type 1A for approximately 2 h. Enzyme treatment was terminated by washing in six changes of ND96 and oocytes were stored in ND96 containing 2.5 mM sodium pyruvate, […] and 0.7 mM theophylline.
(§2) Mouse 5-HT3A (accession number: AY605711) or 5-HT3B (accession number: NM_020274, kindly provided by Ewen Kirkness) subunit cDNAs were cloned into pGEMHE for oocyte expression ([Liman et al., 1992]). cRNA was in vitro transcribed from linearised (NheI) plasmid cDNA template using the mMessage mMachine T7 kit (Ambion, Austin, Texas, USA). Stage V and VI oocytes were injected with 50 ng–100 ng cRNA, and recorded from 1–4 days post-injection. For expression in HEK 293 cells, 5-HT3 receptor subunit cDNAs were cloned into pcDNA3.1 (Invitrogen Ltd., Paisley, UK.). Mutagenesis reactions were performed using the Kunkel method and confirmed by DNA sequencing. Cells were transfected using calcium phosphate precipitation at 80–90% confluency ([Jordan et al., 1996]). Following transfection cells were incubated for 3–4 days before assay.
(§3) Agonist-induced currents were recorded at 22–25 °C from individual oocytes using the OpusXpress system (Molecular Devices Axon Instruments, Union City, CA). […] The holding potential was − 60 mV.

5-HT3AB receptors [2] = molecular target: T2, 5-HT3AB receptors (Mus musculus, UniProt P23979+Q9JHJ5); assay: [3H]granisetron binding to membranes of transfected HEK 293 cells, 5-HT3AB receptors
T2 construct: expressed in transfected cells; host or cells: Xenopus laevis oocytes injected with cRNA (pGEMHE)
T2 sequence (P23979 24-489): T1 sequence (P23979 24-489)
T2 sequence (Q9JHJ5 22-437): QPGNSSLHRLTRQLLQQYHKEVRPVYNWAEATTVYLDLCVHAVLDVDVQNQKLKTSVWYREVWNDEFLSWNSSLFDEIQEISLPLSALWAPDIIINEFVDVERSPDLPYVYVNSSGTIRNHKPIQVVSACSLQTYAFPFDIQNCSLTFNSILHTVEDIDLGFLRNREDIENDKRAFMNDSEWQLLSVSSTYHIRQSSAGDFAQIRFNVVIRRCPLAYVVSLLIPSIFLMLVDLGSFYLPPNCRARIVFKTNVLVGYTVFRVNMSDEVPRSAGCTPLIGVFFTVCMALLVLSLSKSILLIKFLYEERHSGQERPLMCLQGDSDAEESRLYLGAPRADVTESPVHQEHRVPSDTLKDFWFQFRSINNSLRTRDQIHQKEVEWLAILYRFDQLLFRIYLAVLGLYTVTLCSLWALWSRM
Experimental: as §2
(§4) This was undertaken in HEK 293 cells which provide an established and robust method of studying ligand binding. Methods were as previously described ([Lummis et al., 1993]), with minor modifications. Briefly, transfected HEK 293 cells were washed twice with phosphate buffered saline (PBS) at room temperature and scraped into 1 ml of ice-cold HEPES buffer (10 mM, pH 7.4) containing the following proteinase inhibitors (PI): 1 mM EDTA, 50 μg ml^− 1 soybean trypsin inhibitor, 50 μg/ml bacitracin and 0.1 mM phenylmethylsulphonyl fluoride. […] Competition binding was performed using ligand concentrations from 0.1 μM–10 mM. Reactions were incubated for at least 1 h at 4 °C and terminated by vacuum filtration using a Brandel cell harvester onto GF/B filters pre-soaked in 0.3% polyethyleneimine. Radioactivity was determined by scintillation counting using a Beckman LS6000SC (Fullerton, California, USA). Competition binding data were analyzed by iterative curve fitting (GraphPad Prism v3.02, GraphPad Software, San Diego, California, USA), according to the equation: y=Bmin+Bmax−Bmin/1+10^[L]−logIC50 where Bmin is the lowest total binding, Bmax is the maximum specific binding at equilibrium, [L] is the concentration of competing ligand and IC50 is the concentration of competing ligand that blocks half of the specific bound radioligand. Ki values were estimated from IC50 values using the Cheng–Prusoff equation: Ki=IC50/1+[L]/Kd
(§5) where Ki is the equilibrium dissociation constant for binding of the unlabeled antagonist, [L] is the concentration of radioligand and Kd is the equilibrium dissociation constant of the radioligand.

5-HT3A receptors [3] = molecular target: T1, 5-HT3A receptors; assay: [3H]granisetron binding to membranes of transfected HEK 293 cells, 5-HT3A receptors; conditions: for Ki relative to the Ki for 5-HT: 5-HT3A receptors, fold greater than 5-HT; for Ki: WT 5-HT3A receptors, HEK 293 membranes, 0.5 nM [3H]granisetron, 4 °C
Experimental: as §2, §4, §5

5-HT3AB receptors [4] = molecular target: T2, 5-HT3AB receptors; assay: Agonist-induced currents in Xenopus oocytes expressing 5-HT3AB receptors (OpusXpress electrophysiology); type: cell-based; conditions: for agonist character: 5-HT3AB receptors; for EC50: holding potential -60 mV; for Relative efficacy Rmax = Imax drug / Imax 5-HT: maximal concentration
Experimental: as §1, §2, §3

[5] = molecular target: T3, E236A mutant 5-HT3A receptors (Mus musculus, UniProt P23979, E236A); assay: [3H]granisetron competition binding, E236A mutant 5-HT3A receptors
T3 construct: expressed in transfected cells; host or cells: HEK 293 cells (pcDNA3.1); Kunkel mutagenesis
T3 sequence (P23979 24-489 E236A): T1 sequence (P23979 24-489) with E213A
Experimental: as §2, with “Cells were transfected using calcium phosphate precipitation at 80–90% confluency ([Jordan et al., 1996]). Following transfection cells were incubated for 3–4 days before assay.” left out
(§6) This was undertaken in HEK 293 cells which provide an established and robust method of studying ligand binding. […] Radioactivity was determined by scintillation counting using a Beckman LS6000SC (Fullerton, California, USA). Competition binding data were analyzed by iterative curve fitting (GraphPad Prism v3.02, GraphPad Software, San Diego, California, USA), according to the equation: y=Bmin+Bmax−Bmin/1+10^[L]−logIC50 where Bmin is the lowest total binding, Bmax is the maximum specific binding at equilibrium, [L] is the concentration of competing ligand and IC50 is the concentration of competing ligand that blocks half of the specific bound radioligand. […]

[6] = molecular target: T4, N128A mutant 5-HT3A receptors (Mus musculus, UniProt P23979, N128A); assay: [3H]granisetron competition binding, N128A mutant 5-HT3A receptors
T4 construct: expressed in transfected cells; host or cells: HEK 293 cells (pcDNA3.1); Kunkel mutagenesis
T4 sequence (P23979 24-489 N128A): T1 sequence (P23979 24-489) with N105A
Experimental: as §2, with “Cells were transfected using calcium phosphate precipitation at 80–90% confluency ([Jordan et al., 1996]). Following transfection cells were incubated for 3–4 days before assay.” left out
as §6

5-HT3A receptors [7] = molecular target: T1, 5-HT3A receptors; conditions: discussion; compound not tested in this paper; no reference given; cited from earlier work
[8] = 5-HT3A receptors in Xenopus oocytes
[9] = 5-HT3AB receptors, HEK 293 membranes, 0.5 nM [3H]granisetron, 4 °C, read-out: Ki, displacement of [3H]granisetron binding
[10] = read-out: Ki, displacement of [3H]granisetron binding
[11] = 5-HT3AB receptors in Xenopus oocytes
[12] = 5-HT3AB receptors in Xenopus oocytes, read-out: EC50
[13] = EC50, 5-HT3A receptors in Xenopus oocytes
[14] = Ki, displacement of [3H]granisetron binding

SMILES | agonist character (5-HT3A receptors [1]) | nH (Hill slope) (5-HT3A receptors [1]; [8]) | Relative efficacy Rmax = Imax drug / Imax 5-HT (5-HT3A receptors [1]; [8]) | Rmax, approximate summary value (5-HT3A receptors [1]) | Ki relative to the Ki for 5-HT (5-HT3A receptors [3]) [fold] | agonist character (5-HT3AB receptors [4]) | nH (Hill slope) (5-HT3AB receptors [4]; [11]) | Relative efficacy Rmax = Imax drug / Imax 5-HT (5-HT3AB receptors [4]; [11]) | EC50 (5-HT3A receptors [1]; [13]) | Ki (5-HT3AB receptors [2]) [µM] | Ki (5-HT3A receptors [3]; [14]) | also measured
NCCc1c[nH]c2ccccc12 [tryptamine] | partial agonist | 2.5 and 2.5 ± 0.5 | 0.15 | ~0.15 | ~50 | partial agonist | 1.8 and 1.8 ± 0.5 | 0.14 ± 0.02 |  |  |  | EC50 (5-HT3A receptors [1]; 5-HT3A receptors in Xenopus oocytes, mean ± SEM, read-out: pEC50 (converted)): 123 µM; Relative efficacy Rmax = Imax drug / Imax 5-HT (5-HT3A receptors [1]; 5-HT3A receptors in Xenopus oocytes, listed as Tryptamine): 0.15 ± 0.06; EC50 relative to both 5-HT and 5-FT (5-HT3A receptors [1]; EC50 fold higher than 5-HT and 5-FT, both receptor types): 10–100 fold; potency (EC50) relative to 5-HT (5-HT3A receptors [1]; fold less potent / EC50 higher than 5-HT, stated for 5-HT3A and 5-HT3AB receptors together): ~100 fold; Ki (5-HT3AB receptors [2]; [9]): 15.5 ± 3.5 µM; Ki (5-HT3A receptors [3]; [10]): 4.8 ± 0.9 µM; EC50 (5-HT3AB receptors [4]; 5-HT3AB receptors in Xenopus oocytes, mean ± SEM, read-out: pEC50 (converted)): 60.3 µM; EC50 (5-HT3AB receptors [4]; [12]): 61 µM
NCCc1c[nH]c2ccc(F)cc12 [5-FT, 5-fluorotryptamine] | partial agonist | 2.4 and 2.4 ± 0.5 | 0.64 and 0.64 ± 0.03 | ~0.5 | ~10 | partial agonist | 1.4 and 1.4 ± 0.3 | 0.45 and 0.45 ± 0.04 | 16 µM | 1.8 ± 0.4 | 0.8 µM and 0.83 µM | Ki [5]: 1.62 ± 0.41 µM; Ki [6]: 2.43 ± 0.47 µM; EC50 (5-HT3AB receptors [4]; EC50, 5-HT3AB receptors in Xenopus oocytes): 27 µM
NCCc1c[nH]c2ccc(O)cc12 [5-HT] |  |  |  |  |  |  | 1.4 and 1.4 ± 0.4 |  |  |  |  | 
NCCc1c[nH]c2ccc(Cl)cc12 [5-ClT, 5-chlorotryptamine] | very weak partial agonist |  | 0.0037 |  | ~10 |  |  |  | 8.1 µM and 8 µM | 3.1 ± 1.1 | 2.7 ± 0.7 µM | EC50 relative to Ki (5-HT3A receptors [1]): less than 5 fold
Cc1ccc2[nH]cc(CCN)c2c1 [5-MeT, 5-methyltryptamine] | very weak partial agonist |  | 0.0023 |  | ~100 |  |  |  | 60 ± 3 µM | 7.7 ± 1.1 |  | EC50 relative to Ki (5-HT3A receptors [1]): less than 5 fold
COc1ccc2[nH]cc(CCN)c2c1 [5-MeOT, 5-methoxytryptamine] |  |  |  |  | ~300 |  |  |  |  | 21.7 ± 2.1 | 34.9 ± 3 µM | activation of 5-HT3 receptors (5-HT3A receptors [1]; concentrations up to 10 mM, examined in 5-HT3A receptors): unable to activate
N=C(N)NC(=N)Nc1cccc(Cl)c1 [mCPBG, m-chlorophenylbiguanide] | partial agonist | 2.3 and 2.3 ± 0.4 | 0.74 ± 0.07 | ~0.8 |  | full agonist | 1.6 and 1.6 ± 0.4 | 0.92 ± 0.09 |  |  |  | EC50 (5-HT3A receptors [1]; 5-HT3A receptors in Xenopus oocytes, read-out: EC50): 0.5 µM; Ki (5-HT3AB receptors [2]; [9]): 0.012 ± 0.004 µM; Ki (5-HT3A receptors [3]; [10]): 0.01 ± 0.003 µM; EC50 (5-HT3AB receptors [4]; [12]): 1.1 µM
Cc1[nH]c2ccc(O)cc2c1CCN [2-methyl-5-HT] |  |  |  |  |  |  |  |  |  |  |  | Rmax, approximate value (5-HT3A receptors [7]): ~0.2
